In publication PMC4042574, “Phenolic Lipids Affect the Activity and Conformation of Acetylcholinesterase from Electrophorus electricus (Electric eel)” (Nutrients, 2014):
Like-named read-outs stand apart in the source and are kept apart here.

Target: acetylcholinesterase (AChE) from Electrophorus electricus (electric eel) (Electrophorus electricus, UniProt O42275)
Assay: Ellman assay, […] nm
Assay type: biochemical

acetylcholinesterase (AChE) from Electrophorus electricus (electric eel), sequence (O42275 24-633): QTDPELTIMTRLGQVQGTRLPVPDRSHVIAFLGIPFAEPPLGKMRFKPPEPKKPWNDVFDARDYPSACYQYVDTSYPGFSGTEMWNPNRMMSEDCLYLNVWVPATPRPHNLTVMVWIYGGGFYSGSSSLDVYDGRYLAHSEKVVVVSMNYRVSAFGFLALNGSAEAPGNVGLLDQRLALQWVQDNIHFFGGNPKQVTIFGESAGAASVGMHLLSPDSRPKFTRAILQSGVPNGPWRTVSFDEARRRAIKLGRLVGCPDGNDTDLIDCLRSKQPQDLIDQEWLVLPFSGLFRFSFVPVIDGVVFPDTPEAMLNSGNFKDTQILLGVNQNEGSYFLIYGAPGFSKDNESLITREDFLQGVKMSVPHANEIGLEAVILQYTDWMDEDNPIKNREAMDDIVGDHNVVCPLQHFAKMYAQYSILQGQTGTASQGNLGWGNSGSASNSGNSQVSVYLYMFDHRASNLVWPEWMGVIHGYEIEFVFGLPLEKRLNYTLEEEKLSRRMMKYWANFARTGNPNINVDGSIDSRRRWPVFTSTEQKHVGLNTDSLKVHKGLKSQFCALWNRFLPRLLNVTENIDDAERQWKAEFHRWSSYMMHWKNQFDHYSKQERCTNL

Compound	IC50 (acetylthiocholine iodide (0.476 μM as printed), pH 8.0, 37 °C, 5 min pre-incubation)	IC50
Cardol	3.5 ± 0.2 µM	–
CCCCCCCCCCCCCCCCCCCc1cc(O)cc(O)c1 [AR 19:0]	–	77 ± 1.25 µM
CCCCCCCCCCCCCCCc1cc(O)cc(O)c1 [AR 15:0]	–	> 94 µM
CCCCCCCCCCCCCCCCCCCCCc1cc(O)cc(O)c1 [AR 21:0]	–	44 ± 0.47 µM
CCCCCCCCCCCCCCCCCCCCCCCCCc1cc(O)cc(O)c1 [AR 25:0]	–	44 ± 4.24 µM
